The source of these data is patent US11267802B2 (BEBETTER MED INC., priority 2015, dated 2022).

The target of series [1] is T1, EGFR T790M/L858R (Homo sapiens, UniProt P00533, L858R/T790M).
T1 construct: purchased Invitrogen PR8911A
The experiment in a line: Mutant EGFR T790M/L858R activity inhibition assay (Caliper mobility shift). The format is biochemical. The note with it: read-out: enzyme activity inhibition (IC50) EGFR T790M/L858R. The procedure:
The assay procedure is as follows. […] 5 μl of the compound dissolved in 10% DMSO at a concentration of 5-fold of the final reaction concentration was added to a 384 well plate. 5 μl of 10% DMSO was used in a no-compound control well, while 5 μl of a kinase buffer was used in a no-enzyme activity control well. […] The conversion rate was read on Caliper EZ Reader II (Caliper Life Sciences). The conversion rate was then converted to inhibitory rate.
As used herein, “max” refers to the conversion rate of the DMSO no-compound control well, and “min” refers to the conversion rate of the no-enzyme activity control well. A curve was obtained by plotting the inhibitory rate as a function of the compound concentration. The XLFit excel add-in version 4.3.1 software was used to fit the curve and calculate the IC50. Inhibitory rate %=(max−conversion rate)/(max−min)×100.

Series [2] has as its system H1975. The experiment in a line: Inhibition assay on tumor cell proliferation (CellTiter-Glo), H1975. Format: cell-based, Human. The note with it: Homo sapiens, NCI-H1975; H1975 (L858R and T790M EGFR double mutation), 72 hours, 10% bovine serum.
Series [3] concerns H358. The series is described as follows: Inhibition assay on tumor cell proliferation (CellTiter-Glo), H358. Format: cell-based, Human. The settings on record: Homo sapiens, NCI-H358; H358 (wild-type EGFR), 72 hours, 10% bovine serum. The method, then:
(§1) By using a CellTiter-Glo luminescence cell viability test kit (Promega, # G7572), the content of adenosine triphosphate (ATP) was determined to assess the cell viability.
(§2) Human colon cancer cell line LOVO and human non-small-cell lung cancer H358 express wild-type EGFR. Human non-small-cell lung cancer cell line HCC827 carries deletion mutation in exon 19 (ex19del). Those cell lines are purchased from Shanghai Fudan IBS Cell Resource Center and American Tissue Culture Collection (ATCC).
(§3) The assay procedure is as follows. The cells in a cell culture plate were digested with a pancreatic enzyme, re-suspended in a DPBS culture medium, and had the cell density counted by Scepter automated cytometer (Millipore # PHCC00000). The cells were diluted to a solution of 44,000 cells per ml. The cell solution with adjusted density was added to the cell assay plate at 90 microliters per well. The plate was placed in an incubator with 5% CO2 at 37° C. for 24 hours of incubation, and then added with different concentrations of subject compounds. The cells were incubated for 72 hours with the compounds in presence of 10% bovine serum. The content of ATP was determined by a CellTiter-Glo® Luminescent Cell Viability Assay kit (see the manufacturer's instruction for details) to evaluate cell-growth inhibition.
(§4) Briefly, 30 μl of CellTiter-Glo® reagent was added to each well, and then shaken for 10 minutes to induce cell lysis. The fluorescent signal was detected and recorded by Fluoroskan Ascent FL (Thermo). The max signal value was obtained from the cells treated by dimethyl sulfoxide for 72 hours. The min signal value was obtained from the medium alone (the number of the cells was 0). Inhibitory rate %=(max signal value−compound signal value)/(max signal value−min signal value)×100. The data was processed by GraphPad Prism V5.0 software (GraphPad Software, San Diego, Calif.). Sigmoidal dose-response curve fitting was performed to calculate the IC50 value.

Series [4] in a line: Pharmacokinetics in rats after oral administration. The format is in vivo, SD rats. The settings on record: for AUC(0-inf) / Cmax / Tmax / half-life / AUC(0-t): male, SD, rat, 20 mg/kg, plasma; for AUC(0-t): read-out: AUC0-24. The method, then:
Male SD rats weighing 250-300 g, or male beagles weighing 9-10 kg, were fasted overnight before the experiment. The object compounds were dissolved in 30% sulfobutylated beta-cyclodextrin (SBE-β-CD), and orally administrated to the rats at a dose of 20 mg/kg or to the beagles at a dose of 5 mg/kg. Blood samples were taken at 15 minutes, 30 minutes, 1 hour, 2 hours, 3 hours, 4 hours, 6 hours, 8 hours and 24 hours after administration. 0.3 ml of blood was collected at every time point, placed in a centrifuge tube containing K2-EDTA (ethylenediamine tetraacetic acid dipotassium) and centrifuged (2,000 g, 10 minutes, 4° C.) to collect plasma, which was then stored in an ultra cold storage freezer at −80° C. 50 μL of plasma sample was mixed with 5 μL of internal standard (IS), and then extracted with ethyl acetate. After vacuum drying, the residue was re-dissolved in acetonitrile. The sample was filtered and injected into LC-MS/MS for analysis.

Series [5] deals with LOVO. The experiment in a line: Inhibition assay on tumor cell proliferation (CellTiter-Glo), LOVO. The format is cell-based, Human. The note with it: Homo sapiens; LOVO (wild-type EGFR), 72 hours, 10% bovine serum. The procedure: as §1, §2, §3, §4

T1 sequence (P00533 25-1210 T790M/L858R): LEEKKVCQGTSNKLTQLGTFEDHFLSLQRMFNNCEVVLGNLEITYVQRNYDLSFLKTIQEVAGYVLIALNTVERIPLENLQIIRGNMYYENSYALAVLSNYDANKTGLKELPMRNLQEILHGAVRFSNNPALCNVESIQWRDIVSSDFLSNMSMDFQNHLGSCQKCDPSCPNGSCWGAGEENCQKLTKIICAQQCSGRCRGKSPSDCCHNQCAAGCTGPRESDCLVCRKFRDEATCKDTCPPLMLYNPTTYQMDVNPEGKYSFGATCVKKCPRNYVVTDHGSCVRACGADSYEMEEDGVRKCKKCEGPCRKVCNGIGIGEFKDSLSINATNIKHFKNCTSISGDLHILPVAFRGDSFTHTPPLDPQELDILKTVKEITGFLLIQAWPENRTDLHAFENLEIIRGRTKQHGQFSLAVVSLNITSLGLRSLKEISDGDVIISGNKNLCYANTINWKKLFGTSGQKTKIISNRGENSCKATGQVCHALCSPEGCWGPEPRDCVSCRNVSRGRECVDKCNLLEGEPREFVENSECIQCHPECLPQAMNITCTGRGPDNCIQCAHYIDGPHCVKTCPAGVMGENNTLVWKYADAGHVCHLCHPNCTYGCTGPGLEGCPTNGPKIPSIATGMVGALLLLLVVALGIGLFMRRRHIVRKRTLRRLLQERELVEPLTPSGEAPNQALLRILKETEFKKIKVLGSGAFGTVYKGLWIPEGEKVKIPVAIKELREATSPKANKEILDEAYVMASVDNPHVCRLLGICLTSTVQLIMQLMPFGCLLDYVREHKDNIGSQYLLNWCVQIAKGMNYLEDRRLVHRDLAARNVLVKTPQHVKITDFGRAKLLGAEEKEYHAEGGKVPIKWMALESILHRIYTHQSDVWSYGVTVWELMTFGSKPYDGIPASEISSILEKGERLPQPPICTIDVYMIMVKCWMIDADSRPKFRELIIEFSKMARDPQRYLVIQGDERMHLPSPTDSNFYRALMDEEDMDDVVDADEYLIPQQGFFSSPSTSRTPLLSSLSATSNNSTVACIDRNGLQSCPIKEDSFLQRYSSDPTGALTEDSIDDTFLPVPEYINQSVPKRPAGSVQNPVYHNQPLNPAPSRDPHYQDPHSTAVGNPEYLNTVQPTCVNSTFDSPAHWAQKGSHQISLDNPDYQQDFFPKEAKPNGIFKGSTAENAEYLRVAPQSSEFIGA

`C=CC(=O)Nc1cc(Nc2nccc(-n3c(=O)n(C(C)C)c4cc(OC)ccc43)n2)c(OC)cc1N(C)CCN(C)C` [Compound 138, N-(2-((2-(dimethylamino)ethyl)(methyl)amino)-5-((4-(3-isopropyl-5-methoxy-2-oxo-2,3-dihydro-1H-benzo[d]imidazol-1-yl)pyrimidin-2-yl)amino)-4-methoxyphenyl)acrylamide] showed a melting point of 95 to 98 °C. For the same compound, the IC50 in series [1] is 1 to 10 nM. The same compound had an IC50 in series [2] of less than 10 nM. For the same compound, the IC50 in series [3] fell in the range of 100 to 1000 nM.
The matching figures for `C=CC(=O)Nc1cc(Nc2nccc(-n3c(=O)n(C4CC4)c4cc(F)ccc43)n2)c(OC)cc1N(C)CCN(C)C` [Compound 98, N-(5-(4-(3-cyclopropyl-5-fluoro-2-oxo-2,3-dihydrobenzo[d]imidazol-1-yl)pyrimidin-2-ylamino)-2-((2-(dimethylamino)ethyl)(methyl)amino)-4-methoxyphenyl)acrylamide]: 181 to 184 °C, less than 1 nM, less than 10 nM and 100 to 1000 nM.
The matching figures for `C=CC(=O)Nc1cc(Nc2nccc(-n3ccc4cc(Cl)ccc43)n2)c(OC)cc1N(C)CCN(C)C` [Compound 31, N-(5-((4-(5-chloro-1H-indol-1-yl)pyrimidin-2-yl)amino)-2-((2-(dimethylamino)ethyl)(methyl)amino)-4-methoxyphenyl)acrylamide]: 150 to 153 °C, less than 1 nM, less than 10 nM and greater than 1000 nM.
For the compound `C=CC(=O)Nc1cc(Nc2nccc(-n3ccc4nc(Cl)ccc43)n2)c(OC)cc1N(C)CCN(C)C` [Compound 124, N-(5-((4-(5-chloro-1H-pyrrolo[3,2-b]pyridin-1-yl)pyrimidin-2-yl)amino)-2-((2-(dimethylamino)ethyl)(methyl)amino)-4-methoxyphenyl)acrylamide], the melting point fell in the range of 127 to 129 °C. The IC50 in series [1] is less than 1 nM. In series [4], the “absorption / blood exposure after oral administration (in words)” value was “well absorbed, with high blood exposure”; the AUC(0-inf) stood at 1790 ng·h/mL; the concentration peaked (Cmax) at 327 ng/mL; the Tmax is 1.7 h. In series [4], the half-life is 6.1 h and the AUC(0-t) amounted to 1700 ng·h/mL. In series [2], this compound gave an IC50 of less than 10 nM. In addition, the IC50 in series [3] lay in the range of 100 to 1000 nM.
With `C=CC(=O)Nc1cc(Nc2nccc(-n3c(=O)n(CC=C(C)C)c4ccccc43)n2)c(OC)cc1N(C)CCN(C)C` [Compound 62, N-(2-((2-(dimethylamino)ethyl)(methyl)amino)-4-methoxy-5-(4-(3-(3-methylbut-2-enyl)-2-oxo-2,3-dihydro-1H-benzo[d]imidazol-1-yl)pyrimidin-2-ylamino)phenyl)acrylamide], the melting point lay within 187 to 188 °C. The IC50 in series [1] was less than 1 nM. Further, in series [4], the “absorption / blood exposure after oral administration (in words)” value is “well absorbed, with high blood exposure”; the AUC(0-inf) was found to be 920 ng·h/mL; the Cmax was found to be 84 ng/mL; the Tmax came out at 3.7 h. For the same compound, in series [4], the half-life was 6.8 h and the AUC(0-t) turned out to be 834 ng·h/mL. Also, in series [2], the IC50 is less than 10 nM. The same compound had an IC50 in series [3] of 100 to 1000 nM.
Regarding `C=CC(=O)Nc1cc(Nc2ncc(C)c(-n3ccc4ccccc43)n2)c(OC)cc1N(C)CCN(C)C` [Compound 8, N-(5-((4-(1H-indol-1-yl)-5-methylpyrimidin-2-yl)amino)-2-((2-(dimethylamino)ethyl)(methyl)amino)-4-methoxyphenyl)acrylamide], the IC50 was less than 1 nM in series [1], greater than 1000 nM in series [5], less than 10 nM in series [2] and 100 to 1000 nM in series [3].
Compound `C=CC(=O)Nc1cc(Nc2nccc(-n3c(=O)n(C4CC4)c4cc(C#N)ccc43)n2)c(OC)cc1N(C)CCN(C)C` [Compound 101, N-(5-((4-(5-cyano-3-cyclopropyl-2-oxo-2,3-dihydro-1H-benzo[d]imidazol-1-yl)pyrimidin-2-yl)amino)-2-((2-(dimethylamino)ethyl)(methyl)amino)-4-methoxyphenyl)acrylamide] registered a melting point of 177 to 179 °C. The IC50 in series [1] was less than 1 nM. Also, the IC50 in series [2] was less than 10 nM. This compound showed an IC50 in series [3] of 100 to 1000 nM.
Compound `C=CC(=O)Nc1cc(Nc2nccc(-n3c(=O)n(C(C)C)c4cc(O)ccc43)n2)c(OC)cc1N(C)CCN(C)C` [Compound 139, N-(2-((2-(dimethylamino)ethyl)(methyl)amino)-5-((4-(5-hydroxy-3-isopropyl-2-oxo-2,3-dihydro-1H-benzo[d]imidazol-1-yl)pyrimidin-2-yl)amino)-4-methoxyphenyl)acrylamide] returned a melting point of 115 to 117 °C. The IC50 in series [1] was less than 1 nM. Also, the IC50 in series [2] was less than 10 nM. Further, in series [3], the IC50 lay in the range of 100 to 1000 nM.
Take `COc1cc(N(C)CCN(C)C)c(NC(=O)/C=C/CN2CCCCC2)cc1Nc1nccc(-n2ccc3ccccc32)n1` [Compound 70, (E)-N-(5-(4-(1H-indol-1-yl)pyrimidin-2-ylamino)-2-((2-(dimethylamino)ethyl)(methyl)amino)-4-methoxyphenyl)-4-(piperidin-1-yl)but-2-enamide]: the IC50 lay within 1 to 10 nM in series [1], 100 to 1000 nM in series [5], 100 to 1000 nM in series [2] and 100 to 1000 nM in series [3].
For `C=CC(=O)Nc1cc(Nc2nccc(-n3c(=O)n(C4CC4)c4cc(Cl)ccc43)n2)c(OC)cc1N(C)CCN(C)C` [Compound 99, N-(5-((4-(5-chloro-3-cyclopropyl-2-oxo-2,3-dihydro-1H-benzo[d]imidazol-1-yl)pyrimidin-2-yl)amino)-2-((2-(dimethylamino)ethyl)(methyl)amino)-4-methoxyphenyl)acrylamide], the melting point was in the range of 124 to 126 °C. Moreover, the IC50 in series [1] was in the range of 1 to 10 nM. Besides, the IC50 in series [2] was less than 10 nM. This compound also came in with an IC50 in series [3] of 100 to 1000 nM.
`C=CC(=O)Nc1cc(Nc2ncc(N(C)C)c(-n3c(=O)n(C(C)C)c4ccccc43)n2)c(OC)cc1N(C)CCN(C)C` [Compound 135, N-(5-((5-(dimethylamino)-4-(3-isopropyl-2-oxo-2,3-dihydro-1H-benzo[d]imidazol-1-yl)pyrimidin-2-yl)amino)-2-((2-(dimethylamino)ethyl)(methyl)amino)-4-methoxyphenyl)acrylamide] showed a melting point of 114.6 to 116.2 °C. The IC50 in series [1] fell in the range of 1 to 10 nM. The same compound returned an IC50 in series [2] of 10 to 50 nM. This compound displayed an IC50 in series [3] greater than 1000 nM.
On the same counts, the results for `C=CC(=O)Nc1cc(Nc2nccc(-n3c(=O)n(C(C)C)c4ccccc43)n2)c(C)cc1N(C)CCN(C)C` [Compound 127, N-(2-((2-(dimethylamino)ethyl)(methyl)amino)-5-((4-(3-isopropyl-2-oxo-2,3-dihydro-1H-benzo[d]imidazol-1-yl)pyrimidin-2-yl)amino)-4-methylphenyl)acrylamide] are 179 to 181 °C, less than 1 nM, less than 10 nM and greater than 1000 nM.
